In patent US20240400577A1, “MODULATORS OF PROTEIN KINASES” (VIBLIOME THERAPEUTICS, LLC, priority 2021, published 2024):

Experiments:
Assay in all cases: Kinase panel enzymatic inhibition assay (Nanosyn)
Format in all cases: biochemical
Details in all cases: compound 5 μM; ATP at Km; 30-minute pre-incubation
PDGFRa = target: T1, PDGFRa (Homo sapiens, UniProt P16234)
T1 construct: Nanosyn (contract laboratory that ran the panel)
Summary of the method: (§1)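 Read-out is percent inhibition or IC50, obtained by mobility shift, ADP detection or time-resolved fluorescence detection. Each kinase was run with ATP at its Km, and compound at 5 μM was pre-incubated for 30 minutes.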

LYNb = target: T2, LYNb (Homo sapiens, UniProt P07948)
T2 construct: purchased Nanosyn (contract screening)
Summary of the method: as §1

PDGFRb = target: T3, PDGFRb (Homo sapiens, UniProt P09619)
T3 construct: Nanosyn (contract laboratory that ran the panel)
Summary of the method: as §1

ERBB4 = target: T4, ERBB4 (Homo sapiens, UniProt Q15303)
T4 construct: purchased Nanosyn (contract screening)
Summary of the method: as §1

RET = target: T5, RET (Homo sapiens, UniProt P07949)
T5 construct: Nanosyn (contract laboratory that ran the panel)
Summary of the method: as §1

FYN = target: T6, FYN (Homo sapiens, UniProt P06241)
T6 construct: purchased Nanosyn (contract screening)
Summary of the method: as §1

ARAF = target: T7, ARAF (Homo sapiens, UniProt P10398)
T7 construct: purchased Nanosyn (contract screening)
T7 sequence (P10398 1-606): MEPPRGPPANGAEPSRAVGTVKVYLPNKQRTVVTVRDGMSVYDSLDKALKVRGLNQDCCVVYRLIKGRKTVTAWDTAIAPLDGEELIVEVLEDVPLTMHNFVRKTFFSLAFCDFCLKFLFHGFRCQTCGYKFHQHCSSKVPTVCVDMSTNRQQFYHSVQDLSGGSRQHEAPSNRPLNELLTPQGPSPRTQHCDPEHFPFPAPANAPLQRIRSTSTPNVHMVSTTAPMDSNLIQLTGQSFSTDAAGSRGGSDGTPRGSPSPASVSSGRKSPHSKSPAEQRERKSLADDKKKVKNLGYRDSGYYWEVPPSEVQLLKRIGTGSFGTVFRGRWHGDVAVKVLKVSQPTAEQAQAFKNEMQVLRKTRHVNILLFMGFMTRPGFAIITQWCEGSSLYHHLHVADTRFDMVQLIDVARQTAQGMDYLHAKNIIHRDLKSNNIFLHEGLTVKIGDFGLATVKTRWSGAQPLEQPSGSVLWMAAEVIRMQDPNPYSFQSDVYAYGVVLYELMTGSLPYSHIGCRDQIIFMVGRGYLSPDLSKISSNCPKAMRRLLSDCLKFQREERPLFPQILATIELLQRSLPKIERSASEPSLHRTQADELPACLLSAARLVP
Summary of the method: as §1

BLK = target: T8, BLK (Homo sapiens, UniProt P51451)
T8 construct: purchased Nanosyn (contract screening)
Summary of the method: as §1

EPH = system: EPH
Summary of the method: as §1

Abl2 = target: T9, Abl2 (Homo sapiens, UniProt P42684)
T9 construct: purchased Nanosyn (contract screening)
Summary of the method: as §1

HGK = target: T10, HGK (Homo sapiens, UniProt O95819)
T10 construct: purchased Nanosyn (contract screening)
Summary of the method: as §1

TAOK2 = target: T11, TAOK2 (Homo sapiens, UniProt Q9UL54)
T11 construct: Nanosyn (contract laboratory that ran the panel)
T11 sequence (Q9UL54 1-1235): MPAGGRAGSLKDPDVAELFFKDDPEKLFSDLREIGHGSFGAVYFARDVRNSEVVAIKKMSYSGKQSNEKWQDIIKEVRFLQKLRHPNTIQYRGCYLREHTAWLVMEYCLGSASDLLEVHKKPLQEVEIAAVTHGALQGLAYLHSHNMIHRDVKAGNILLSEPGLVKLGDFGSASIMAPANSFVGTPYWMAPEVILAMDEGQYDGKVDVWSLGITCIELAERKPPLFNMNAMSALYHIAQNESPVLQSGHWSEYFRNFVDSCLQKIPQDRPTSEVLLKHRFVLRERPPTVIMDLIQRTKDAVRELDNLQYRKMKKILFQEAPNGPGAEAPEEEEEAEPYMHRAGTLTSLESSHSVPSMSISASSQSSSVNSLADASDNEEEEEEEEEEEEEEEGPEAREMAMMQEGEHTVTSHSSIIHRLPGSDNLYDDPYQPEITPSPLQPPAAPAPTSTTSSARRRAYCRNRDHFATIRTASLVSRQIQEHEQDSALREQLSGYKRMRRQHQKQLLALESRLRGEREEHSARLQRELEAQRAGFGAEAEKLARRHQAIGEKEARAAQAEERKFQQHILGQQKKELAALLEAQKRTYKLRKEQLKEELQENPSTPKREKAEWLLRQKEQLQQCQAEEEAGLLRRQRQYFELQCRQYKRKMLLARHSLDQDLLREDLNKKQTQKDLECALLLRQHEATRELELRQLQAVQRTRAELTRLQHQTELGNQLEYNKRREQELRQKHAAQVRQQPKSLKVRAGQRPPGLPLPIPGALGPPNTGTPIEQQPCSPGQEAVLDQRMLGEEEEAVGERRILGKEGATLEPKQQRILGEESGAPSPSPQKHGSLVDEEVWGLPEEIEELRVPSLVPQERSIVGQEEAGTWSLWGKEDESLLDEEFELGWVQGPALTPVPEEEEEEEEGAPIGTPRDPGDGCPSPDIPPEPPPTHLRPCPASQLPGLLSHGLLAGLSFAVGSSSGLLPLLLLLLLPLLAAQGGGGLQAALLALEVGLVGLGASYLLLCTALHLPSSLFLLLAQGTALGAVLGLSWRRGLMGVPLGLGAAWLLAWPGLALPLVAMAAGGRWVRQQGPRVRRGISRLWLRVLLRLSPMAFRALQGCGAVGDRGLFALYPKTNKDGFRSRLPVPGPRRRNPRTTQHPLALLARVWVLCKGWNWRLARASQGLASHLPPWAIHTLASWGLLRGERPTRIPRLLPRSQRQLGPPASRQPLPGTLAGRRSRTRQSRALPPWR
Summary of the method: as §1

CRAF = target: T12, CRAF (Homo sapiens, UniProt P04049)
T12 construct: purchased Nanosyn (contract screening)
Summary of the method: as §1

T6 sequence (P06241 whole entry): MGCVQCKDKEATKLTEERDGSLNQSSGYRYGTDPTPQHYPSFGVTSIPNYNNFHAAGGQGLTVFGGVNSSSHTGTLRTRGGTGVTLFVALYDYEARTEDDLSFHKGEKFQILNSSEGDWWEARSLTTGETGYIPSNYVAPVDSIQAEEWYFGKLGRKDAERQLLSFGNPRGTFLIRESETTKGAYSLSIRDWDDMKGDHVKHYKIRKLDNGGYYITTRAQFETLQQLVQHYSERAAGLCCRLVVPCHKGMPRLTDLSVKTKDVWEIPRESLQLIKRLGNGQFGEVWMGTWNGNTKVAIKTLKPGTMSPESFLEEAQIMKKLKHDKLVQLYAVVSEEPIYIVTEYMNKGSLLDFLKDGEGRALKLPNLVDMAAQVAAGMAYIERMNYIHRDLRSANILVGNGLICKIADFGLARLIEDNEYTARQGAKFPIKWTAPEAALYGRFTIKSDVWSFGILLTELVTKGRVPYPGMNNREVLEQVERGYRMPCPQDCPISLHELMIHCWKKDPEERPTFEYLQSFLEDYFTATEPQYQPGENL
T4 sequence (Q15303 26-1308): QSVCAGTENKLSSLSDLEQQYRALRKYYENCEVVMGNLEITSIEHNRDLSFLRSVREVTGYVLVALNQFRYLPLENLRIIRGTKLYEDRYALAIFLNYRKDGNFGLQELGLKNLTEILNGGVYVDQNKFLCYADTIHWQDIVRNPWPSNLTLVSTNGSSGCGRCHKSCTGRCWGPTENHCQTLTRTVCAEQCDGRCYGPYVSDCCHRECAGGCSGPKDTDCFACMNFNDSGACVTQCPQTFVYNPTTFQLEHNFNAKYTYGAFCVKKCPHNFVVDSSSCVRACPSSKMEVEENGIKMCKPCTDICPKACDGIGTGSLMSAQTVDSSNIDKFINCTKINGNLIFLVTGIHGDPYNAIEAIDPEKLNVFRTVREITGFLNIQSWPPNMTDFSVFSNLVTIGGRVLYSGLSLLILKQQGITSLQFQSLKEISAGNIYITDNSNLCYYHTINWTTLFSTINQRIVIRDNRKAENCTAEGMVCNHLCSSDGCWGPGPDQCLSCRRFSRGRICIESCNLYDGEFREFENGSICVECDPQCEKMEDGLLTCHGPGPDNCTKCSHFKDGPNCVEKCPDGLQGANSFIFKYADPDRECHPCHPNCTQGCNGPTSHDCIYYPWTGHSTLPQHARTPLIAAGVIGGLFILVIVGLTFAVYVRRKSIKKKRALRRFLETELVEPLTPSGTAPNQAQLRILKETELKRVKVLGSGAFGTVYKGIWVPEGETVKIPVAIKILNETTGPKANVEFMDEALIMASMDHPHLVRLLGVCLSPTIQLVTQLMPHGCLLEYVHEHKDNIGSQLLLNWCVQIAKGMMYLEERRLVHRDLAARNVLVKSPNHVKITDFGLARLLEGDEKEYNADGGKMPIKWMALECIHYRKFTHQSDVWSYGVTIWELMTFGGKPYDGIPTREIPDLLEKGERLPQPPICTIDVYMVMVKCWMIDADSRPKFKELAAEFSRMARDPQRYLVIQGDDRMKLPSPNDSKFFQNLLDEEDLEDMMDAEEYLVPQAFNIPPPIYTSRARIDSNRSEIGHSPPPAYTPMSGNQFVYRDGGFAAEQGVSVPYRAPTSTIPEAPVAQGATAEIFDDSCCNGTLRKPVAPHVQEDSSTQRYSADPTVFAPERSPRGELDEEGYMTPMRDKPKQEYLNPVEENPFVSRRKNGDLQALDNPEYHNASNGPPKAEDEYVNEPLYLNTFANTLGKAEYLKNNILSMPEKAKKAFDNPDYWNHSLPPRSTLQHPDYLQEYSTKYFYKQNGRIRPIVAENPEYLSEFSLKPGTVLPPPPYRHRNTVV
T3 sequence (P09619 33-1106): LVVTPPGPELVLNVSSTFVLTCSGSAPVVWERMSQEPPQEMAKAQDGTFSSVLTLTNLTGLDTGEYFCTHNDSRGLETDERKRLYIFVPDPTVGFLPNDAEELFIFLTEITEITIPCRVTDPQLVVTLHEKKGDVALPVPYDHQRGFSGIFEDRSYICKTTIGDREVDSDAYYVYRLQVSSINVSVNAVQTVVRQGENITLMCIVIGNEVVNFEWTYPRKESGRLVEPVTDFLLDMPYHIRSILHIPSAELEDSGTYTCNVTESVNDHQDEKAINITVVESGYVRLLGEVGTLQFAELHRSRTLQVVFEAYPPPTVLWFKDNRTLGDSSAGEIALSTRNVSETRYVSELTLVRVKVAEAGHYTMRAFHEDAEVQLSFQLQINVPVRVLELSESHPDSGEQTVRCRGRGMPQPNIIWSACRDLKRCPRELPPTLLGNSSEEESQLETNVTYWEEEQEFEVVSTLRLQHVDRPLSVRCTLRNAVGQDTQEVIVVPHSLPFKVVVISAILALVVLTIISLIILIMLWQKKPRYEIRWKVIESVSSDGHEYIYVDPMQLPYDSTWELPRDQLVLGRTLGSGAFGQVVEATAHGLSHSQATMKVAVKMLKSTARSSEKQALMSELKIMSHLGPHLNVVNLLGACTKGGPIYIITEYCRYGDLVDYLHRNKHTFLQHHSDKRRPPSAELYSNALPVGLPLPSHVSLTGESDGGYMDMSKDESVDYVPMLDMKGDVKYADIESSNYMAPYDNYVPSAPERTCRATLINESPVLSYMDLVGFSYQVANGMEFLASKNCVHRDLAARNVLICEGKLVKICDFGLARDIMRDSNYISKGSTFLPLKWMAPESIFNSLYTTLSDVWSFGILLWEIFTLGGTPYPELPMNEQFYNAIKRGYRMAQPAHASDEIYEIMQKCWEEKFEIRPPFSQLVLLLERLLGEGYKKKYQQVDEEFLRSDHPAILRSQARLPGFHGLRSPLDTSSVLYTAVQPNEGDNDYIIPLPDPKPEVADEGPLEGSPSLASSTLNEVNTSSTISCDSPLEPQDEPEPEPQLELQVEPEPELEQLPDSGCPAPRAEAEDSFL
T5 sequence (P07949 29-1114): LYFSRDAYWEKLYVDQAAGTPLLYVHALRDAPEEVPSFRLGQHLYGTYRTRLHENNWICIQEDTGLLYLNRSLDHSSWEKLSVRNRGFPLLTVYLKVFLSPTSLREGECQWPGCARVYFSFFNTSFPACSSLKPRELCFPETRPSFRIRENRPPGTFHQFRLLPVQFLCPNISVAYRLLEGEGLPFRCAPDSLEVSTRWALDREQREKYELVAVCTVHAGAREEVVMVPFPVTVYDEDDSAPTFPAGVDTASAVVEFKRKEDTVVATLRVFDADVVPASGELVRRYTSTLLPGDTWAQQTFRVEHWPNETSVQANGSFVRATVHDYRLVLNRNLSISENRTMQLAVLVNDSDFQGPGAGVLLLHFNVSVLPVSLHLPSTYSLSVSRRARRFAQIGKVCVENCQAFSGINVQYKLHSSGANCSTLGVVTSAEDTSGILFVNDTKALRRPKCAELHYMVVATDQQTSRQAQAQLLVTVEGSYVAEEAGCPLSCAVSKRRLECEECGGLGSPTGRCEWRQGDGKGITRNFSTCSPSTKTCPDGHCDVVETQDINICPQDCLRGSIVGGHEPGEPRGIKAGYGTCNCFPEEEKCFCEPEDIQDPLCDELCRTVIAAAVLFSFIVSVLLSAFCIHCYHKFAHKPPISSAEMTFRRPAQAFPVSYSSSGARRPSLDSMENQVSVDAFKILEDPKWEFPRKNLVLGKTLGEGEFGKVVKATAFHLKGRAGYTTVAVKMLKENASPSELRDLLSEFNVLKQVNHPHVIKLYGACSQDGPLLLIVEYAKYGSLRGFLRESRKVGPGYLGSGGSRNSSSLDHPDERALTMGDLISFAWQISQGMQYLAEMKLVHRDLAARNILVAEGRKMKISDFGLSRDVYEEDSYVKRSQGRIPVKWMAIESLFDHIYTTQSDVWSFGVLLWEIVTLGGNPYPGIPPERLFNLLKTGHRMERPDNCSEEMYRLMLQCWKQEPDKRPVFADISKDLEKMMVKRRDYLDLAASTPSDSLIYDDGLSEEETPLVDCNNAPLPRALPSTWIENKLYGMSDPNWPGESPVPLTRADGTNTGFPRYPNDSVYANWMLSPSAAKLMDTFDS
T1 sequence (P16234 24-1089): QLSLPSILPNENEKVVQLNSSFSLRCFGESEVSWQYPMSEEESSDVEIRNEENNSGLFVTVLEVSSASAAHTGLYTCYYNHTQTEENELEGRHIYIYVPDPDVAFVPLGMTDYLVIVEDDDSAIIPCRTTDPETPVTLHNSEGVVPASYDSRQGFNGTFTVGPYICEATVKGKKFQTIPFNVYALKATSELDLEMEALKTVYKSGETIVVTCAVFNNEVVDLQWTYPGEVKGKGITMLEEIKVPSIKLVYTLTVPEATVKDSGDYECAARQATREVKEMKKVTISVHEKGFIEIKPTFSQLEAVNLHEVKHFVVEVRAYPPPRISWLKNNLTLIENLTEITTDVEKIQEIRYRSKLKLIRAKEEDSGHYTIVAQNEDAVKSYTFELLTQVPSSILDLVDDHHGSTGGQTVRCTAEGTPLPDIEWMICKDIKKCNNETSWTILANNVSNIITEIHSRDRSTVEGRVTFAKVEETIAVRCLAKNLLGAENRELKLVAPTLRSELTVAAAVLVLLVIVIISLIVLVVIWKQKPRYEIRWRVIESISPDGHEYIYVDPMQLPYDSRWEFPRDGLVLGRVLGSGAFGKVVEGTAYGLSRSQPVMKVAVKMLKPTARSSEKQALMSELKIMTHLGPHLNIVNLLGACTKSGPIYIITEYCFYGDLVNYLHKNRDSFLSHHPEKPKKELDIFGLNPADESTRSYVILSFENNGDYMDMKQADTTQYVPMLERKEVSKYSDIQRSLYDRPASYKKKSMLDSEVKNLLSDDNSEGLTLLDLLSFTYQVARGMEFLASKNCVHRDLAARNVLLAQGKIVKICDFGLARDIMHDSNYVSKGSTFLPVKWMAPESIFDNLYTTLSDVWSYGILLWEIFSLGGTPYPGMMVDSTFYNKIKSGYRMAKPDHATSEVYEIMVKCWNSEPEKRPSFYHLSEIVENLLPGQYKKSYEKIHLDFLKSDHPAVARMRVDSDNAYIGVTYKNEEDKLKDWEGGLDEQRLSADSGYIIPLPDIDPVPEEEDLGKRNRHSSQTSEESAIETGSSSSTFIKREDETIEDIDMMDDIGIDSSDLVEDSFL

| Compound | inhibition at 5 µM (PDGFRa) | inhibition at 5 µM (LYNb) | inhibition at 5 µM (PDGFRb) | inhibition at 5 µM (ERBB4) | inhibition at 5 µM (RET) | inhibition at 5 µM (FYN) | inhibition at 5 µM (ARAF) | inhibition at 5 µM (BLK) | kinase inhibition, EPH (EPH) | inhibition at 5 µM (Abl2) | inhibition at 5 µM (HGK) | inhibition at 5 µM (TAOK2) | inhibition at 5 µM (CRAF) |
| --- | --- | --- | --- | --- | --- | --- | --- | --- | --- | --- | --- | --- | --- |
| Cc1ccc(NC(=O)c2cc(S(C)(=O)=O)n(-c3ccc(F)cc3)n2)cc1-c1cc(N2CCOCC2)c(=O)n(C)c1 [Ex12, 1-(4-fluorophenyl)-N-(4-methyl-3-(1-methyl-5-morpholino-6-oxo-1,6-dihydropyridin-3-yl)phenyl)-5-(methylsulfonyl)-1H-pyrazole-3-carboxamide] | < 79% | < 79% | < 79% | < 79% | < 79% | < 79% | ≥ 95% | < 79% | D (D=79% and less) | < 79% | < 79% | 80 to 89% | ≥ 95% |
| Cc1ccc(NC(=O)c2cc(S(C)(=O)=O)n(-c3ccc(F)cc3)n2)cc1Nc1nccc(-c2cccnc2N)n1 [Ex13, N-(3-((4-(2-aminopyridin-3-yl)pyrimidin-2-yl)amino)-4-methylphenyl)-1-(4-fluorophenyl)-5-(methylsulfonyl)-1H-pyrazole-3-carboxamide] | ≥ 95% | ≥ 95% | ≥ 95% | 80 to 89% | < 79% | < 79% | ≥ 95% | < 79% | D (D=79% and less) | ≥ 95% | < 79% | < 79% | < 79% |
| Cc1ccc(NC(=O)c2cc(S(C)(=O)=O)n(-c3ccc(F)cc3)n2)cc1C#Cc1cnc2cccnn12 [Ex14, 1-(4-fluorophenyl)-N-(3-(imidazo[1,2-b]pyridazin-3-ylethynyl)-4-methylphenyl)-5-(methylsulfonyl)-1H-pyrazole-3-carboxamide] | < 79% | ≥ 95% | 90 to 94% | < 79% | 80 to 89% | 90 to 94% | ≥ 95% | 80 to 89% | D (D=79% and less) | ≥ 95% | < 79% | < 79% | ≥ 95% |
| CCOC(=O)Nc1cn2nc(Nc3cc(NC(=O)c4cc(S(C)(=O)=O)n(-c5ccc(F)cc5)n4)ccc3C)ccc2n1 [Ex15, ethyl (6-((5-(1-(4-fluorophenyl)-5-(methylsulfonyl)-1H-pyrazole-3-carboxamido)-2-methylphenyl)amino)imidazo[1,2-b]pyridazin-2-yl)carbamate] | ≥ 95% | ≥ 95% | ≥ 95% | < 79% | ≥ 95% | ≥ 95% | < 79% | < 79% | D (D=79% and less) | ≥ 95% | < 79% | < 79% | ≥ 95% |
| CNC(=O)c1cc(Oc2ccc(NC(=O)c3cc(S(C)(=O)=O)n(-c4ccc(F)cc4)n3)c(F)c2)ccn1 [Ex17, 4-(3-fluoro-4-(1-(4-fluorophenyl)-5-(methylsulfonyl)-1H-pyrazole-3-carboxamido)phenoxy)-N-methylpicolinamide] | < 79% | < 79% | < 79% | < 79% | < 79% | < 79% | < 79% | < 79% | D (D=79% and less) | < 79% | < 79% | < 79% | < 79% |
| CCOC(=O)Nc1cn2nc(Nc3cc(NC(=O)c4cc([S+](C)[O-])n(-c5ccc(F)cc5)n4)ccc3C)ccc2n1 (stereo not drawn) [Ex18, ethyl (6-((5-(1-(4-fluorophenyl)-5-(methylsulfinyl)-1H-pyrazole-3-carboxamido)-2-methylphenyl)amino)imidazo[1,2-b]pyridazin-2-yl)carbamate] | 90 to 94% | < 79% | 90 to 94% | < 79% | 80 to 89% | ≥ 95% | < 79% | < 79% | D (D=79% and less) | 80 to 89% | < 79% | < 79% | ≥ 95% |
